Assay [1] deals with carbapenem-resistant P. aeruginosa clinical isolate CFS-1292. The assay is described as follows: MIC by modified CLSI broth microdilution against P. aeruginosa CFS-1292 (CAA, CAA + human serum). Type of assay: cell-based, Pseudomonas aeruginosa. Conditions: for MIC (μg/mL) against CFS-1292 in 100% CAA (1st run/2nd run): 1st run or single value. For orientation: Broth dilution looks for growth in wells or tubes with falling amounts of substance.

Assay [2] relates to Enterobacter cloacae. The assay is described as follows: microbe, parasite or virus in culture. Type of assay: cell-based. Conditions: Enterobacter cloacae ATCC 13047; CAA supplemented with human serum. Here is the method:
(§1) Determination of Minimal Inhibitory Concentrations (MIC).
(§2) Additional MIC testing was performed for several peptides against the ESKAPE pathogens Escherichia coli, Enterobacter cloacae, Klebsiella pneumoniae, and Acinetobacter baumannii, in CAA supplemented with human serum (Table D).

Assay [3] concerns Escherichia coli. The assay is described as follows: microbe, parasite or virus in culture. Type of assay: cell-based. Conditions: Escherichia coli ATCC 25922; CAA supplemented with human serum. The protocol: as §1, §2
Assay [4] relates to Klebsiella pneumoniae. Type of assay: cell-based. Conditions: Klebsiella pneumoniae HM-44; CAA supplemented with human serum. The protocol: as §1, §2
Assay [5] has as its system Acinetobacter baumannii. In words: microbe, parasite or virus in culture. It counts as cell-based. Conditions: Acinetobacter baumannii ATCC BAA 747; CAA supplemented with human serum.
Assay [6] is described as follows: Stability assessment in 100% CAA. Type of assay: in vitro ADME. On the set-up: unit not given beside the values. Here is the method: Stability was assessed after incubation in 100% human serum at 37° C. after 10 minutes, 1 hour, and 2 hours.
Stability assessment was further conducted in 100% CAA and rabbit serum using the same methodology discussed above.

The test system of assay [7] is M. smegmatis. The assay is described as follows: 45 hr MIC against M. smegmatis (NTM), Mueller Hinton broth. It counts as cell-based, Mycobacterium smegmatis. Conditions: M. smegmatis MC^2 155, Run #1.
In assay [8] the test system is P. aeruginosa strain CFS-1292. The assay is described as follows: Checkerboard assay (FICI) with antibiotics, P. aeruginosa. Type of assay: cell-based, Pseudomonas aeruginosa. Conditions: for Antibiotic FIC: P. aeruginosa CFS-1292; for Antibiotic MIC in checkerboard: P. aeruginosa CFS-1292, CAA + […] human serum. The protocol: Any known method to assess MIC may be used.
Checkerboards are constructed by first preparing columns of e.g., a 96-well polypropylene microtiter plate, wherein each well has the same amount of antibiotic diluted 2-fold along the horizontal axis. […] Bacteria are added to the drug combinations at concentrations of 1×10^5 […] in CAA, for example, with or without human serum or pulmonary surfactant. […] Summation fractional inhibitory concentrations (ΣFICs) are calculated for each drug and the minimum ΣFIC value (ΣFICmin) is used to determine the effect of the Chp peptide/antibiotic combination.
(§3) Checkerboard assays. […] Checkerboards were constructed by first preparing columns of a 96-well polypropylene microtiter plate, in which each well had the same amount of antibiotic diluted 2-fold along the horizontal axis. […] Summation fractional inhibitory concentration index (FICIs) were calculated for each drug and the minimum FICI was used to determine synergy. FICIs were calculated as follows: FICI=FIC A+FIC B, where FIC A is the MIC of each antibiotic in the combination/MIC of the each antibiotic alone, and FIC B is the MIC of each Chp peptide in the combination/MIC of each Chp peptide alone. The combination is considered synergistic when the FICI is ≤0.5, strongly additive when the FICI is >0.5 to <1, additive with the FICI is 1-<2, and antagonistic when the FICI is ≥2.
In the checkerboard assay, fractional inhibitory concentration index (FICI) values are calculated.

The test system of assay [9] is Klebsiella pneumoniae strain 1139. In words: Checkerboard assay (FICI) with antibiotics, K. pneumoniae. It counts as cell-based. Conditions: for Antibiotic FIC / Antibiotic MIC: checkerboard. Here is the method: as §3
Assay [10] has as its system Acinetobacter baumannii strain 30. In words: Checkerboard assay (FICI) with antibiotics, A. baumannii. Conditions: checkerboard. Type of assay: cell-based. The protocol:
as §3
The results are shown below in Tables 22-27.

Assay [11] relates to LPS. In words: Endotoxin neutralization, limulus amoebocyte lysate (LAL) enzyme assay, LPS binding. Type of assay: biochemical. Conditions: LPS 0.8 EU/mL. Here is the method:
CHEM. […] The standard reference samples contained only LPS dissolved in pyrogen-free water. Solutions were mixed well and incubated at 24° C. for 1 hour, and the manufacturers' test procedure for quantitative detection of endotoxins was followed.

“MAGKKMVSKGKDRQIFRKTADRTKKMNVRPLLYRGGIRL [Chp12]”: the “MIC (μg/mL) against CFS-1292 in 100% CAA (1st run/2nd run)” value (“MIC (μg/mL) against CFS-1292 in 100% CAA” for short) in [1] came out at 8 µg/mL. Besides, the MIC was found to be 32 mg/L in [2], 8 mg/L in [3], 16 mg/L in [4] and 1 mg/L in assay [5]. The “MIC (100% CAA)” value in assay [6] is on record as 8. Besides, in [7], the “45 hr MIC” value was 64 mg/L.
On to “MAKKMTKGKDRQVFRKTADRTKKLNVRPLLYRGGIRL [Chp11]”, for which, in assay [1], the “MIC (μg/mL) against CFS-1292 in 100% CAA” value is 16 µg/mL. The “MIC (μg/mL) against CFS-1292 in CAA + […] human serum” value (shortened to “MIC (μg/mL) against CFS-1292 in CAA +”) in assay [1] was 4 µg/mL. The MIC in [2] stood at 32 mg/L; in assay [3], 2 mg/L; in assay [4], 16 mg/L; in assay [5], 32 mg/L. The “MIC (100% CAA)” value in assay [6] was 16. Further, the “45 hr MIC” value in assay [7] was found to be 32 mg/L.
For “MAKRHKIPQRASQHSFTRHAQKVHPKNVPRLPMRGGIRL [AVQ244]”, the “MIC (μg/mL) against CFS-1292 in 100% CAA” value in assay [1] was 64 µg/mL. For the same substance, the “MIC (100% CAA)” value in assay [6] stood at 64. Besides, the “45 hr MIC” value in assay [7] is 64 mg/L.
Turning to “MCKKVCKKCPKKGPKNAPKIGAFYERKTPRLKQST [CPAR39]”, the “MIC (μg/mL) against CFS-1292 in 100% CAA” value in assay [1] amounted to 4 µg/mL. The “MIC (μg/mL) against CFS-1292 in CAA +” value in assay [1] was found to be 1 µg/mL; in [1] (listed as CPAR39 + DTT), 4 µg/mL; in [1] (listed as CPAR39 − DTT), 64 µg/mL. The “MIC (100% CAA)” value in [6] worked out at 4. Further, the “45 hr MIC” value in assay [7] is greater than 128 mg/L.
With “MKRKPMSRKASQKTFKKNTGVQRMNHLNPRAMRGGIRL [Bdp1]”, the “MIC (μg/mL) against CFS-1292 in 100% CAA” value in assay [1] was determined as 16 µg/mL. For the same substance, in assay [1], the “MIC (μg/mL) against CFS-1292 in CAA +” value is greater than 32 µg/mL. Further, the MIC in [2], in assay [3], in assay [4] and in assay [5] was greater than 32 mg/L in each case. In [6], the “MIC (100% CAA)” value was found to be 16. Besides, in [7], the “45 hr MIC” value is 32 mg/L.
As to “MKRRKMTRKGSKRLFTATADKTKSINTAPPPMRGGIRL [Chp7]”, in [1], the “MIC (μg/mL) against CFS-1292 in 100% CAA” value is 16 µg/mL. Besides, in assay [1], the “MIC (μg/mL) against CFS-1292 in CAA +” value amounted to 1 µg/mL. The MIC in assay [2] is greater than 32 mg/L; in assay [3], 8 mg/L; in [4], 1 mg/L; in assay [5] it was greater than 32 mg/L. Further, the “MIC (100% CAA)” value in assay [6] amounted to 8. In [7], the “45 hr MIC” value worked out at 128 mg/L.
As for “MRRYNVNKGKSAKKFRKQVSKTKVANLRSNPMRGGWRL [Unp6]”, in [6], the “MIC (100% CAA)” value came out at 8. For the same substance, the “45 hr MIC” value in [7] is 16 mg/L.
Take “MSKKASRKSFTKGAVKVHKKNVPTRVPMRGGIRL [Gkh2]”: the “MIC (μg/mL) against CFS-1292 in 100% CAA” value in assay [1] is 16 µg/mL. The MIC in assay [2] is 8 mg/L; in [3], 1 mg/L; in assay [4] it was 16 mg/L; in [5], 8 mg/L. In [6], the “MIC (100% CAA)” value is given as 16. Moreover, the “45 hr MIC” value in assay [7] was 32 mg/L.
As for “MSSTLCRWAVKALRCTRVYKEFIWKPLVALSYVTLYLLSSVFLSQLSYPIGSWAV [Lvp1]”, in [1], the “MIC (μg/mL) against CFS-1292 in 100% CAA” value is greater than 64 µg/mL and the “MIC (μg/mL) against CFS-1292 in CAA +” value amounted to 0.5 µg/mL. The “MIC (μg/mL) against CFS-1292 in CAA +” value in assay [1] (listed as Lvp1 + DTT) was 2 µg/mL. Moreover, the “MIC (100% CAA)” value in [6] was greater than 64. Besides, the “45 hr MIC” value in [7] is greater than 128 mg/L.
“MTKRDIEYRKALGLNPSEPLPKIVGAVTRHGATLKRPRVTALAR [SBR77]”: in [1], the “MIC (μg/mL) against CFS-1292 in 100% CAA” value came to 4 µg/mL and the “MIC (μg/mL) against CFS-1292 in CAA +” value was greater than 16 µg/mL. Besides, in assay [1] (listed as SBR77 (Sbr1)), the “MIC (μg/mL) against CFS-1292 in CAA +” value is 0.5 µg/mL. Moreover, the “MIC (100% CAA)” value in assay [6] is greater than 64. Further, the “45 hr MIC” value in assay [7] was greater than 64 mg/L.
As to colistin [reference compound], the “Antibiotic FIC” value in assay [8] (combined with Chp2-M1), in [8] (combined with Chp2), in assay [8] (combined with Chp4-M1), in [8] (combined with Chp6-M1), in [8] (combined with Unp2-M1) and in [9] (in combination with Chp4-M1) was 0.25 each time. Further, the “Antibiotic FIC” value is listed as 0.25 in assay [9] (in combination with Chp10-M1); 0.5 in assay [10] (in combination with Chp2-M1); 0.5 in assay [10] (in combination with Chp4-M1); 0.25 in [10] (in combination with Chp6-M1); 0.25 in assay [10] (in combination with Chp10-M1); 0.5 in assay [10] (in combination with Unp2-M1). Further, the “Antibiotic MIC in checkerboard” value in assay [8] (combined with Chp2-M1) turned out to be 0.01562 mg/L; in [8] (combined with Chp2), 0.01562 mg/L; in assay [8] (combined with Chp4-M1), 0.03125 mg/L; in assay [8] (combined with Chp6-M1), 0.01562 mg/L; in [8] (combined with Chp10-M1), 0.007806 mg/L; in [8] (combined with Unp2-M1) it was 0.01562 mg/L. The “Antibiotic MIC in checkerboard” value in [9] (combined with Chp2) amounted to 0.007812 mg/L; in assay [9] (combined with Chp2-M1) it was 0.01562 mg/L. Also, the “Antibiotic MIC” value in [9] (in combination with Chp4-M1) was 0.03125 mg/L; in [9] (in combination with Chp6-M1), 0.01562 mg/L; in assay [9] (in combination with Chp10-M1), 0.03125 mg/L; in assay [9] (in combination with Unp2-M1) it was 0.03125 mg/L; in assay [10] (in combination with Chp2) it was 0.0009766 mg/L; in assay [10] (in combination with Chp4-M1), 0.003906 mg/L. The “Antibiotic MIC” value in assay [10] (in combination with Chp10-M1) was found to be 0.0009766 mg/L. For the same substance, the LPS binding result in assay [11] ([…]-64 μg/mL, 24° C., 1 hour) is listed as “dose-dependent increases in LPS binding”. Besides, the “% LPS Bound” value in assay [11] (peptide concentration 0.5 μg/mL) is 22.5%; in assay [11] (peptide concentration 1 μg/mL), 51.9%; in assay [11] (peptide concentration 2 μg/mL), 74.2%; in [11] (peptide concentration 4 μg/mL), 88.2%; in assay [11] (peptide concentration 8 μg/mL), 92.4%; in [11] (peptide concentration 16 μg/mL) it was 92.8%. Further, the “% LPS Bound” value is 92.2% in assay [11] (peptide concentration 32 μg/mL) and 93.4% in assay [11] (peptide concentration 64 μg/mL).
